Results taken from patent publication US20230085307A1, “PYRIDAZINONE COMPOUND AND HERBICIDE” (NISSAN CHEMICAL CORPORATION, priority 2019, published 2023).

Assays:
barnyard grass [1] = assay: Test Example 3: herbicidal effect by foliage application, Wagner pot (Table 18, symbol H); assay type: in vivo, barnyard grass (Echinochloa crus-galli)
Method in brief: (§1)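 Plants were sown in alluvial soil held under 0.1–0.5 cm standing water and grown 14 days in a greenhouse at 25–30 °C. An emulsifiable formulation, water-diluted to the set dose, was then sprayed onto the foliage, and effects were scored three weeks later using previously defined criteria.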

persian speedwell [2] = assay: Test Example 4: herbicidal effect by soil treatment (Table 19, symbol R); assay type: in vivo, Persian speedwell (Veronica persica); settings: amount of applied herbicide 320 g/ha
Method in brief: (§2)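 Soil-surface application: an emulsion agent diluted with water to the predetermined dose is sprayed uniformly over seeds lying under roughly 1.5 cm of sterilized diluvial soil. Boxes stay in a greenhouse at 25° C. to 30° C. Three weeks later, each species is graded on previously defined criteria.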

rice flat sedge = assay: Test Example 3: herbicidal effect by foliage application, Wagner pot (Table 18, symbol E); assay type: in vivo, rice flat sedge (Cyperus iria)
Method in brief: as §1

green foxtail [3] = assay: Test Example 4: herbicidal effect by soil treatment (Table 19, symbol G); assay type: in vivo, green foxtail (Setaria viridis); settings: amount of applied herbicide 320 g/ha
Method in brief: as §2

windgrass [4] = assay: Test Example 4: herbicidal effect by soil treatment (Table 19, symbol L); assay type: in vivo, windgrass (Apera spica-venti); settings: amount of applied herbicide 320 g/ha
Method in brief: as §2

southern crabgrass [5] = assay: Test Example 5: herbicidal effect by foliage application, plastic box (Table 20, symbol F); assay type: in vivo, southern crabgrass (Digitaria ciliaris)
Method in brief: (§3)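 Sow seeds spot-wise in sterilized diluvial soil; cover with ~1.5 cm soil. Grow 14 days in greenhouse, 25° C. to 30° C. Spray foliage with emulsion diluted to predetermined amount. Rate effect after 3 weeks.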

Italian ryegrass [6] = assay: Test Example 4: herbicidal effect by soil treatment (Table 19, symbol K); assay type: in vivo, Italian ryegrass (Lolium multiflorum); settings: amount of applied herbicide 320 g/ha
Method in brief: as §2

green foxtail [7] = assay: Test Example 5: herbicidal effect by foliage application, plastic box (Table 20, symbol G); assay type: in vivo, green foxtail (Setaria viridis)
Method in brief: as §3

velvetleaf [8] = assay: Test Example 5: herbicidal effect by foliage application, plastic box (Table 20, symbol M); assay type: in vivo, velvetleaf (Abutilon theophrasti)
Method in brief: as §3

velvetleaf [9] = assay: Test Example 4: herbicidal effect by soil treatment (Table 19, symbol M); assay type: in vivo, velvetleaf (Abutilon theophrasti); settings: amount of applied herbicide 320 g/ha
Method in brief: as §2

chickweed [10] = assay: Test Example 4: herbicidal effect by soil treatment (Table 19, symbol P); assay type: in vivo, common chickweed (Stellaria media); settings: amount of applied herbicide 320 g/ha
Method in brief: as §2

Italian ryegrass [11] = assay: Test Example 5: herbicidal effect by foliage application, plastic box (Table 20, symbol K); assay type: in vivo, Italian ryegrass (Lolium multiflorum)
Method in brief: as §3

wild oat [12] = assay: Test Example 5: herbicidal effect by foliage application, plastic box (Table 20, symbol I); assay type: in vivo, wild oat (Avena fatua)
Method in brief: as §3

chickweed [13] = assay: Test Example 5: herbicidal effect by foliage application, plastic box (Table 20, symbol P); assay type: in vivo, common chickweed (Stellaria media)
Method in brief: as §3

barnyard grass [14] = assay: Test Example 4: herbicidal effect by soil treatment (Table 19, symbol H); assay type: in vivo, barnyard grass (Echinochloa crus-galli); settings: amount of applied herbicide 320 g/ha
Method in brief: as §2

wild oat [15] = assay: Test Example 4: herbicidal effect by soil treatment (Table 19, symbol I); assay type: in vivo, wild oat (Avena fatua); settings: amount of applied herbicide 320 g/ha
Method in brief: as §2

lambsquarters [16] = assay: Test Example 5: herbicidal effect by foliage application, plastic box (Table 20, symbol O); assay type: in vivo, lambsquarters (Chenopodium album)
Method in brief: as §3

redroot pigweed [17] = assay: Test Example 5: herbicidal effect by foliage application, plastic box (Table 20, symbol N); assay type: in vivo, redroot pigweed (Amaranthus retroflexus)
Method in brief: as §3

southern crabgrass [18] = assay: Test Example 4: herbicidal effect by soil treatment (Table 19, symbol F); assay type: in vivo, southern crabgrass (Digitaria ciliaris); settings: amount of applied herbicide 320 g/ha
Method in brief: as §2

barnyard grass [19] = assay: Test Example 5: herbicidal effect by foliage application, plastic box (Table 20, symbol H); assay type: in vivo, barnyard grass (Echinochloa crus-galli)
Method in brief: as §3

persian speedwell [20] = assay: Test Example 5: herbicidal effect by foliage application, plastic box (Table 20, symbol R); assay type: in vivo, Persian speedwell (Veronica persica)
Method in brief: as §3

blackgrass = assay: Test Example 5: herbicidal effect by foliage application, plastic box (Table 20, symbol J); assay type: in vivo, blackgrass (Alopecurus myosuroides)
Method in brief: as §3

lambsquarters [21] = assay: Test Example 4: herbicidal effect by soil treatment (Table 19, symbol O); assay type: in vivo, lambsquarters (Chenopodium album); settings: amount of applied herbicide 320 g/ha
Method in brief: as §2

redroot pigweed [22] = assay: Test Example 4: herbicidal effect by soil treatment (Table 19, symbol N); assay type: in vivo, redroot pigweed (Amaranthus retroflexus); settings: amount of applied herbicide 320 g/ha
Method in brief: as §2

windgrass [23] = assay: Test Example 5: herbicidal effect by foliage application, plastic box (Table 20, symbol L); assay type: in vivo, windgrass (Apera spica-venti)
Method in brief: as §3

Chinese sprangletop = assay: Test Example 3: herbicidal effect by foliage application, Wagner pot (Table 18, symbol D); assay type: in vivo, chinese sprangletop (Leptochloa chinensis)
Method in brief: as §1

[24] = amount of applied herbicide 320 g/ha, foliage application after 14-day growth, evaluated three weeks after application
[25] = amount of applied herbicide 320 g/ha
[26] = foliage application, 320 g/ha, evaluated 3 weeks after application

Cc1nn(C)c(=O)c(-c2c(-c3ccc4c(c3)OCCO4)sc3cc(F)c(F)cc23)c1O [5-037]
herbicidal effect on barnyard grass (H) (barnyard grass [1]; 320 g/ha): 4 (Herbicidal rate of 70% or more and less than 90%) | R: persian speedwell, herbicidal effect grade (persian speedwell [2]): 5 (Herbicidal rate of 90% or more (almost completely withered)) | herbicidal effect on rice flat sedge (E) (rice flat sedge; 320 g/ha): 5 (Herbicidal rate of 90% or more (almost completely withered)) | G: green foxtail, herbicidal effect grade (green foxtail [3]): 0 (Herbicidal rate of 5% or less (almost no effect)) | L: windgrass, herbicidal effect grade (windgrass [4]): 0 (Herbicidal rate of 5% or less (almost no effect)) | Herbicidal effect by foliage application, F: southern crabgrass (southern crabgrass [5]; [24]): 0 (Herbicidal rate of 5% or less (almost no effect)) | K: Italian ryegrass, herbicidal effect grade (Italian ryegrass [6]): 0 (Herbicidal rate of 5% or less (almost no effect)) | Herbicidal effect by foliage application, G: green foxtail (green foxtail [7]; [24]): 0 (Herbicidal rate of 5% or less (almost no effect)) | Herbicidal effect by foliage application, M: velvetleaf (velvetleaf [8]; [24]): 5 (Herbicidal rate of 90% or more (almost completely withered)) | M: velvetleaf, herbicidal effect grade (velvetleaf [9]): 5 (Herbicidal rate of 90% or more (almost completely withered)) | P: chickweed, herbicidal effect grade (chickweed [10]): 0 (Herbicidal rate of 5% or less (almost no effect)) | Herbicidal effect by foliage application, K: Italian ryegrass (Italian ryegrass [11]; [24]): 0 (Herbicidal rate of 5% or less (almost no effect)) | Herbicidal effect by foliage application, I: wild oat (wild oat [12]; [24]): 0 (Herbicidal rate of 5% or less (almost no effect)) | Herbicidal effect by foliage application, P: chickweed (chickweed [13]; [24]): 5 (Herbicidal rate of 90% or more (almost completely withered)) | H: barnyard grass, herbicidal effect grade (barnyard grass [14]): 0 (Herbicidal rate of 5% or less (almost no effect)) | I: wild oat, herbicidal effect grade (wild oat [15]): 0 (Herbicidal rate of 5% or less (almost no effect)) | Herbicidal effect by foliage application, O: lambsquarters (lambsquarters [16]; [24]): 5 (Herbicidal rate of 90% or more (almost completely withered)) | Herbicidal effect by foliage application, N: redroot pigweed (redroot pigweed [17]; [24]): 5 (Herbicidal rate of 90% or more (almost completely withered)) | F: southern crabgrass, herbicidal effect grade (southern crabgrass [18]): 0 (Herbicidal rate of 5% or less (almost no effect)) | Herbicidal effect by foliage application, H: barnyard grass (barnyard grass [19]; [24]): 0 (Herbicidal rate of 5% or less (almost no effect)) | Herbicidal effect by foliage application, R: persian speedwell (persian speedwell [20]; [24]): 5 (Herbicidal rate of 90% or more (almost completely withered)) | Herbicidal effect by foliage application, J: blackgrass (blackgrass; [24]): 0 (Herbicidal rate of 5% or less (almost no effect)) | O: lambsquarters, herbicidal effect grade (lambsquarters [21]): 5 (Herbicidal rate of 90% or more (almost completely withered)) | N: redroot pigweed, herbicidal effect grade (redroot pigweed [22]): 4 (Herbicidal rate of 70% or more and less than 90%) | Herbicidal effect by foliage application, L: windgrass (windgrass [23]; [24]): 0 (Herbicidal rate of 5% or less (almost no effect)) | herbicidal effect on Chinese sprangletop (D) (Chinese sprangletop; 320 g/ha): 4 (Herbicidal rate of 70% or more and less than 90%)

COCc1ccc(-c2oc3ccc(C)cc3c2-c2c(O)c(C)nn(C)c2=O)cc1 [9-061]
Herbicidal effect on H (barnyard grass), foliage application (barnyard grass [1]; [25]): 5 (Herbicidal rate of 90% or more (almost completely withered)) | R: persian speedwell, herbicidal effect grade (persian speedwell [2]): 5 (Herbicidal rate of 90% or more (almost completely withered)) | Herbicidal effect on E (rice flat sedge), foliage application (rice flat sedge; [25]): 5 (Herbicidal rate of 90% or more (almost completely withered)) | G: green foxtail, herbicidal effect grade (green foxtail [3]): 5 (Herbicidal rate of 90% or more (almost completely withered)) | L: windgrass, herbicidal effect grade (windgrass [4]): 0 (Herbicidal rate of 5% or less (almost no effect)) | F (southern crabgrass) herbicidal effect grade (southern crabgrass [5]; [26]): 5 (Herbicidal rate of 90% or more (almost completely withered)) | K: Italian ryegrass, herbicidal effect grade (Italian ryegrass [6]): 5 (Herbicidal rate of 90% or more (almost completely withered)) | G (green foxtail) herbicidal effect grade (green foxtail [7]; [26]): 5 (Herbicidal rate of 90% or more (almost completely withered)) | M (velvetleaf) herbicidal effect grade (velvetleaf [8]; [26]): 5 (Herbicidal rate of 90% or more (almost completely withered)) | M: velvetleaf, herbicidal effect grade (velvetleaf [9]): 4 (Herbicidal rate of 70% or more and less than 90%) | P: chickweed, herbicidal effect grade (chickweed [10]): 4 (Herbicidal rate of 70% or more and less than 90%) | K (Italian ryegrass) herbicidal effect grade (Italian ryegrass [11]; [26]): 5 (Herbicidal rate of 90% or more (almost completely withered)) | I (wild oat) herbicidal effect grade (wild oat [12]; [26]): 3 (Herbicidal rate of 40% or more and less than 70%) | P (chickweed) herbicidal effect grade (chickweed [13]; [26]): 5 (Herbicidal rate of 90% or more (almost completely withered)) | H: barnyard grass, herbicidal effect grade (barnyard grass [14]): 5 (Herbicidal rate of 90% or more (almost completely withered)) | I: wild oat, herbicidal effect grade (wild oat [15]): 2 (Herbicidal rate of 20% or more and less than 40%) | O (lambsquarters) herbicidal effect grade (lambsquarters [16]; [26]): 5 (Herbicidal rate of 90% or more (almost completely withered)) | N (redroot pigweed) herbicidal effect grade (redroot pigweed [17]; [26]): 5 (Herbicidal rate of 90% or more (almost completely withered)) | F: southern crabgrass, herbicidal effect grade (southern crabgrass [18]): 5 (Herbicidal rate of 90% or more (almost completely withered)) | H (barnyard grass) herbicidal effect grade (barnyard grass [19]; [26]): 5 (Herbicidal rate of 90% or more (almost completely withered)) | R (persian speedwell) herbicidal effect grade (persian speedwell [20]; [26]): 5 (Herbicidal rate of 90% or more (almost completely withered)) | J (blackgrass) herbicidal effect grade (blackgrass; [26]): 5 (Herbicidal rate of 90% or more (almost completely withered)) | O: lambsquarters, herbicidal effect grade (lambsquarters [21]): 5 (Herbicidal rate of 90% or more (almost completely withered)) | N: redroot pigweed, herbicidal effect grade (redroot pigweed [22]): 5 (Herbicidal rate of 90% or more (almost completely withered)) | L (windgrass) herbicidal effect grade (windgrass [23]; [26]): 4 (Herbicidal rate of 70% or more and less than 90%) | Herbicidal effect on D (Chinese sprangletop), foliage application (Chinese sprangletop; [25]): 4 (Herbicidal rate of 70% or more and less than 90%)
